Reference: PubChem BioAssay (NCI)
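Values below derive from 48-hour exposures of cells grown in 96-well plates, with endpoints linearly interpolated between the two concentrations bracketing the appropriate inhibition level. Abbreviation: GI50, concentration required for 50% inhibition of growth. The concentration for full growth arrest is given as TGI.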

Legend:
Experiment in all cases: NCI-60 cell line screen, 48 h
[1] = test system: CAKI-1 renal
[2] = test system: HCT-116 colon
[3] = test system: HL-60(TB) leukemia
[4] = test system: IGROV1 ovarian
[5] = test system: NCI-H460 lung
[6] = test system: SF-268 CNS
[7] = test system: SK-MEL-28 melanoma
[8] = test system: SNB-19 CNS
[9] = test system: UACC-62 melanoma
[10] = test system: UO-31 renal

Row | Structure (SMILES) | GI50 [1] | TGI [1] | GI50 [2] | TGI [2] | GI50 [3] | TGI [3] | GI50 [4] | TGI [4] | GI50 [5] | TGI [5] | GI50 [6] | TGI [6] | GI50 [7] | TGI [7] | GI50 [8] | TGI [8] | GI50 [9] | TGI [9] | GI50 [10] | TGI [10]
1 | Cn1cc(C2=C(c3cn(CCCN/C(N)=N\[N+](=O)[O-])c4ccccc34)C(=O)NC2=O)c2ccccc21 | 8.06 µM | > 25 µM | 1.82 µM | > 25 µM | 1.23 µM | 7.66 µM | 3.11 µM | 11.6 µM | 5.9 µM | 20.6 µM | 3.11 µM | 11.6 µM | 3.38 µM | 18.5 µM | 4.4 µM | 19 µM | 3.1 µM | 7.59 µM | 8.71 µM | 24.7 µM
2 | COc1ccc(/C=C\c2cc(OC)c(OC(C)=O)c(OC)c2)cc1 | – | > 100 µM | – | > 100 µM | – | – | – | > 100 µM | – | – | – | > 100 µM | – | 26.2 µM | – | > 100 µM | – | 33.5 µM | – | 50.1 µM
3 | COC(=O)/C=C/c1cc(OC)c2c(c1)[C@@H](C(=O)OC)[C@H](c1ccc(OC)c(OC)c1)O2 | – | – | 0.528 µM | > 100 µM | – | – | 3.84 µM | > 100 µM | 3.9 µM | > 100 µM | 2.91 µM | > 100 µM | 26.4 µM | > 100 µM | 8.64 µM | > 100 µM | 0.972 µM | > 100 µM | 3.4 µM | > 100 µM
4 | C/C(=N\O)c1ccc(Nc2cc(-c3ccccc3)nc3c(O)cccc23)cc1 | 10.2 µM | 35 µM | 13.2 µM | 25.9 µM | 0.585 µM | 96.6 µM | 17.1 µM | 34.6 µM | – | – | – | – | 14.5 µM | 32.3 µM | – | – | 13.4 µM | 27.1 µM | 14.8 µM | 33.7 µM
5 | O=C(NCCOCCO)c1ccc(O)cc1 | – | – | – | > 100 µM | – | > 100 µM | – | > 100 µM | – | > 100 µM | – | > 100 µM | – | > 100 µM | – | – | – | > 100 µM | – | > 100 µM
6 | Cc1cc2c(C=O)[nH]nc2c(C#N)c1C | – | – | – | > 100 µM | – | – | – | > 100 µM | – | > 100 µM | – | > 100 µM | – | > 100 µM | – | > 100 µM | – | > 100 µM | – | > 100 µM
7 | CCOC(=O)/C(C#N)=C/c1[nH]c(C)c(C)c1C | – | > 100 µM | – | > 100 µM | – | > 100 µM | – | > 100 µM | – | > 100 µM | – | > 100 µM | – | – | – | > 100 µM | – | > 100 µM | – | > 100 µM
8 | c1ccc2c(c1)-c1nc3ccccc3cc1C2N1CCOCC1 (stereo not drawn) | – | > 100 µM | – | > 100 µM | – | > 100 µM | – | > 100 µM | – | – | – | > 100 µM | – | > 100 µM | – | > 100 µM | – | > 100 µM | – | –
9 | C=C(C=O)[C@@H]1CC=C(C=O)CC1 | 29.1 µM | > 100 µM | – | – | 2.48 µM | > 100 µM | 3.19 µM | > 23.3 µM | 13.8 µM | > 77.2 µM | 2.94 µM | 16.1 µM | 2.43 µM | 5.87 µM | 17.4 µM | 71.2 µM | 3.14 µM | 12.2 µM | 5.3 µM | > 76 µM
10 | CCN(CC)[C@@H]1c2cc3c(cc2C(c2cc(OC)c(O)c(OC)c2)C2C(=O)CO[C@@H]21)OCO3 (stereo partly drawn) | – | > 100 µM | – | > 100 µM | – | > 100 µM | – | > 100 µM | – | > 100 µM | – | > 100 µM | – | > 100 µM | – | – | – | > 100 µM | – | > 100 µM
11 | Nc1ncnc2c1c(-c1ccc(Oc3ccccc3)cc1)nn2C[C@H]1SSC[C@H]1O | 0.938 µM | 2.85 µM | 0.0489 µM | 1.21 µM | 0.242 µM | 0.66 µM | 0.455 µM | 2.47 µM | 0.0233 µM | 0.0565 µM | – | – | 0.0258 µM | 0.0793 µM | 0.51 µM | 20.1 µM | 0.0377 µM | 0.145 µM | 0.468 µM | 2.77 µM
12 | CC(=O)c1ccc(-c2ccc(C(C)=O)s2)s1 | – | > 100 µM | – | > 100 µM | – | > 100 µM | – | > 100 µM | – | > 100 µM | – | – | – | 3.24 µM | – | > 100 µM | – | > 100 µM | – | > 100 µM
13 | C=C1[C@@H]2CCC(C)(C)[C@H]1CCC(=O)[C@@H]2C(=O)OC | – | – | – | > 100 µM | – | > 100 µM | – | > 100 µM | – | > 100 µM | – | > 100 µM | – | > 100 µM | – | > 100 µM | – | > 100 µM | – | > 100 µM
14 | CC12CCC(C)(c3cc(O)c(O)cc31)c1cc(O)c(O)cc12 | – | 23.6 µM | – | – | – | 13.1 µM | – | 40.4 µM | – | 35.7 µM | – | 42.9 µM | – | 34.1 µM | – | 30.2 µM | – | 36.2 µM | – | 43.5 µM
15 | COC(=O)c1cccc(COc2ccc([N+](=O)[O-])cc2Cl)c1 | – | > 100 µM | – | > 100 µM | – | – | – | > 100 µM | – | > 100 µM | – | > 100 µM | – | > 100 µM | – | > 100 µM | – | > 100 µM | – | > 100 µM
16 | Clc1ccc2c(NCCCNCc3ccc4c(c3)OCO4)ccnc2c1 | – | – | 2.03 µM | 8.82 µM | 2.22 µM | 4.79 µM | 5.52 µM | 20.9 µM | 3.61 µM | 12.1 µM | 3.12 µM | 12.7 µM | 1.86 µM | 3.57 µM | 4.79 µM | 16.9 µM | 2.02 µM | 3.89 µM | 1.41 µM | 3.1 µM
17 | CC(=O)Oc1cc(OC(C)=O)c(OC(C)=O)c2c1CC1C(=O)C3(CCc4ccccc43)C(=O)C1C2 (stereo not drawn) | – | 38.3 µM | – | – | – | 22.4 µM | – | 38.6 µM | – | 28.3 µM | – | – | – | 36.5 µM | – | – | – | 31.3 µM | – | 36.6 µM
18 | NCCCSCC(=O)O | – | > 100 µM | – | > 100 µM | – | – | – | > 100 µM | – | – | – | > 100 µM | – | > 100 µM | – | > 100 µM | – | > 100 µM | – | > 100 µM
19 | OC(c1cc2c(Cl)cc(Cl)cc2c2cc(C(F)(F)F)ccc12)C1CCCCN1 (stereo not drawn) | 1.68 µM | 3.46 µM | 1.67 µM | 3.37 µM | 1.85 µM | 3.71 µM | 1.74 µM | 3.58 µM | 1.7 µM | 3.4 µM | 1.86 µM | 3.82 µM | 1.96 µM | 3.62 µM | – | – | 1.78 µM | 3.42 µM | 1.41 µM | 2.99 µM
